Test systems include DLD-1 colon; DMS 114 small cell lung; DU-145 prostate; KM20L2 colon; LXFL 529 NSCLC; M19-MEL melanoma; PC-3 prostate; SNB-78 CNS; T-47D breast; XF 498 CNS.
Experiment in all cases: NCI-60 cell line screen, 48 h

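Exposure lasted 48 hours, with cells grown in 96-well plates and compounds tested at five concentrations. GI50 marks 50% less growth. Definition used: TGI = concentration required for complete inhibition of growth.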

Take `CCOC(=O)C1(Br)C(c2ccccc2)NC(=O)NC1(C)Br` (stereo not drawn): the TGI in the test on DLD-1 colon, with DMS 114 small cell lung, in the test on DU-145 prostate, with KM20L2 colon, with LXFL 529 NSCLC and in the test on M19-MEL melanoma was above 100 µM in each case. The TGI in the test with PC-3 prostate, with SNB-78 CNS, in the test with T-47D breast and in the test with XF 498 CNS was above 100 µM throughout. For the same compound, the values for the GI50 with DU-145 prostate, with PC-3 prostate and in the test on T-47D breast were 44.5 µM, 22.3 µM and 47.3 µM, respectively.

The values above are taken from PubChem BioAssay (NCI).
